Measurements published in paper PMC4595200 (BMC Plant Biology, 2015).

Molecular target: T1, truncated AtAPC2 (N-terminally truncated AtAPC2) (Arabidopsis thaliana, UniProt Q9FI43)
T1 construct: gene APC2; transmembrane carrier domain from residue 164 to C-terminus, EF-hand N-terminal domain removed, N-terminal His tag (pET16b), E. coli Rosetta 2 inclusion bodies, reconstituted in liposomes
T1 sequence (Q9FI43 164-487): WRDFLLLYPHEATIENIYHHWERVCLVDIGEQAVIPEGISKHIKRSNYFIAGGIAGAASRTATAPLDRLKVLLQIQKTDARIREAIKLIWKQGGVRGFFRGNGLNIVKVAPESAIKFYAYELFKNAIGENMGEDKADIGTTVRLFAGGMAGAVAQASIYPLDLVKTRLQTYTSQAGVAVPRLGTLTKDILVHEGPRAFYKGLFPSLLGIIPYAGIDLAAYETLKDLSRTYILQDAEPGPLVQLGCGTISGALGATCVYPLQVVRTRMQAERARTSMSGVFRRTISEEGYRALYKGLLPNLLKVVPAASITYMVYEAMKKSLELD
Test: radiolabelled uptake into proteoliposomes
Format: biochemical
Settings: pH 7.5, 30 °C, labelled compound

Compound	radiolabelled uptake into proteoliposomes (ADP import / ATP export (ATP-loaded), 5 min)	radiolabelled uptake into proteoliposomes (ATP import / Pi export (Pi-loaded), 50 μM ATP)
Nc1ncnc2c1ncn2[C@@H]1O[C@H](COP(=O)(O)OP(=O)(O)O)[C@@H](O)[C@H]1O [ADP]	ADP/ATP exchange of both, full-length and truncated, AtAPC2 variants remained more or less unaltered	
Nc1ncnc2c1ncn2[C@@H]1O[C@H](COP(=O)(O)OP(=O)(O)OP(=O)(O)O)[C@@H](O)[C@H]1O [ATP]		ATP uptake measurements verified that truncated AtAPC2 is functional
